These are literature values, as cited in patent US20210228483A1, “LOW GLYCEMIC GUMMY COMPOSITION AND METHODS OF MAKING AND USING THEREOF” (Seattle Gummy Company, priority 2018, published 2021).

SMILES strings stand for the structures.

One data set has as its system blood glucose levels. As to conditions: as shown in FIG. 3 (trehalose) and FIG. 4 (isomaltulose).
For data set [1] the following is noted: in vivo.

As to `OC[C@H]1O[C@H](OC[C@H]2OC(O)(CO)[C@@H](O)[C@@H]2O)[C@H](O)[C@@H](O)[C@@H]1O` (stereo partly shown) [isomaltulose], the “spike in glucose levels” value in the data set on blood glucose levels is listed as “does not cause a spike in glucose levels”. For the same molecule, the “GI value (glycemic index)” value in data set [1] is listed as “about 30”. Turning to `OC[C@H]1O[C@@](CO)(O[C@H]2O[C@H](CO)[C@@H](O)[C@H](O)[C@H]2O)[C@@H](O)[C@@H]1O` [sucrose, reference compound], the “GI value (glycemic index)” value in data set [1] is on record as 63. As for `OC[C@H]1O[C@H](O[C@H]2O[C@H](CO)[C@@H](O)[C@H](O)[C@H]2O)[C@H](O)[C@@H](O)[C@@H]1O` [trehalose], the “spike in glucose levels” value with blood glucose levels is recorded as “does not cause a spike in glucose levels”.
